Measurements from US8604023B2, “1,4-benzodiazepinone compounds and their use in treating cancer” (The Regents of the University of Michigan, priority 2009, dated 2013).

Tests used:
Experiment in all cases: cancer cell growth inhibition (SRB)
Type in all cases: cell-based, human
[1] = test system: CCRF-CEM; details: Leukemia
[2] = test system: HL-60(TB); details: Leukemia
[3] = test system: K-562; details: Leukemia
[4] = test system: MOLT-4; details: Leukemia
[5] = test system: RPMI-8226; details: Leukemia
[6] = test system: SR; details: Leukemia
[7] = test system: 786-0; details: Renal Cancer
[8] = test system: A498; details: Renal Cancer
[9] = test system: ACHN; details: Renal Cancer
[10] = test system: CAKI-1; details: Renal Cancer
[11] = test system: RXF 393; details: Renal Cancer
[12] = test system: SN12C; details: Renal Cancer
[13] = test system: TK-10; details: Renal Cancer
[14] = test system: UO-31; details: Renal Cancer
[15] = test system: LOXIMVI; details: Melanoma
[16] = test system: M14; details: Melanoma
[17] = test system: MALME-3M; details: Melanoma
[18] = test system: SK-MEL-2; details: Melanoma
[19] = test system: SK-MEL-28; details: Melanoma
[20] = test system: SK-MEL-5; details: Melanoma
[21] = test system: UACC-257; details: Melanoma
[22] = test system: UACC-62; details: Melanoma
[23] = test system: DU-145; details: Prostate Cancer
[24] = test system: PC-3; details: Prostate Cancer
[25] = test system: SF-268; details: CNS Cancer
[26] = test system: SF-295; details: CNS Cancer
[27] = test system: SF-539; details: CNS Cancer
[28] = test system: SNB-19; details: CNS Cancer
[29] = test system: SNB-75; details: CNS Cancer
[30] = test system: U251; details: CNS Cancer

SMILES: O=C1Nc2ccc(Cl)cc2C(c2ccc(N3CCNCC3)nc2)=NC1Cc1ccccc1Cl (stereo not drawn) [Compound V-23]
- growth inhibition of the cancer cells [1]: ++ (40%-75% growth inhibition of the cancer cells)
- growth inhibition of the cancer cells [2]: +++ (at least 75% growth inhibition of the cancer cells)
- growth inhibition of the cancer cells [3]: +++ (at least 75% growth inhibition of the cancer cells)
- growth inhibition of the cancer cells [4]: ++ (40%-75% growth inhibition of the cancer cells)
- growth inhibition of the cancer cells [5]: ++ (40%-75% growth inhibition of the cancer cells)
- growth inhibition of the cancer cells [6]: ++ (40%-75% growth inhibition of the cancer cells)
- growth inhibition of the cancer cells [7]: +++ (at least 75% growth inhibition of the cancer cells)
- growth inhibition of the cancer cells [8]: + (less than 40% growth inhibition of the cancer cells)
- growth inhibition of the cancer cells [9]: +++ (at least 75% growth inhibition of the cancer cells)
- growth inhibition of the cancer cells [10]: +++ (at least 75% growth inhibition of the cancer cells)
- growth inhibition of the cancer cells [11]: +++ (at least 75% growth inhibition of the cancer cells)
- growth inhibition of the cancer cells [12]: +++ (at least 75% growth inhibition of the cancer cells)
- growth inhibition of the cancer cells [13]: +++ (at least 75% growth inhibition of the cancer cells)
- growth inhibition of the cancer cells [14]: +++ (at least 75% growth inhibition of the cancer cells)
- growth inhibition of the cancer cells [15]: +++ (at least 75% growth inhibition of the cancer cells)
- growth inhibition of the cancer cells [16]: +++ (at least 75% growth inhibition of the cancer cells)
- growth inhibition of the cancer cells [17]: +++ (at least 75% growth inhibition of the cancer cells)
- growth inhibition of the cancer cells [18]: ++ (40%-75% growth inhibition of the cancer cells)
- growth inhibition of the cancer cells [19]: +++ (at least 75% growth inhibition of the cancer cells)
- growth inhibition of the cancer cells [20]: +++ (at least 75% growth inhibition of the cancer cells)
- growth inhibition of the cancer cells [21]: +++ (at least 75% growth inhibition of the cancer cells)
- growth inhibition of the cancer cells [22]: ++ (40%-75% growth inhibition of the cancer cells)
- growth inhibition of the cancer cells [23]: +++ (at least 75% growth inhibition of the cancer cells)
- growth inhibition of the cancer cells [24]: ++ (40%-75% growth inhibition of the cancer cells)
- growth inhibition of the cancer cells [25]: ++ (40%-75% growth inhibition of the cancer cells)
- growth inhibition of the cancer cells [26]: +++ (at least 75% growth inhibition of the cancer cells)
- growth inhibition of the cancer cells [27]: +++ (at least 75% growth inhibition of the cancer cells)
- growth inhibition of the cancer cells [28]: ++ (40%-75% growth inhibition of the cancer cells)
- growth inhibition of the cancer cells [29]: ++ (40%-75% growth inhibition of the cancer cells)
- growth inhibition of the cancer cells [30]: +++ (at least 75% growth inhibition of the cancer cells)
